In ChEMBL document CHEMBL4808172, “Structure-Activity Relationship of Heterocyclic P2Y14 Receptor Antagonists: Removal of the Zwitterionic Character with Piperidine Bioisosteres” (J Med Chem, 2021):
“And” between values parts separate entries of the source, which are not always exact repeats. Identical values can stand only once. The source made the active and inactive calls. No cut-off for these calls is given here.

Key:
[1] = target: Sigma non-opioid intracellular receptor 1 (Homo sapiens, UniProt Q99720); experiment: Binding affinity to sigma 1 receptor (unknown origin)
[2] = target: Delta-type opioid receptor (Homo sapiens, UniProt P41143); experiment: Binding affinity to DOR (unknown origin)
Mus musculus [3] = experiment: Antiinflammatory activity in mouse model of ovalbumin/Aspergillus-induced allergic asthma assessed as reduction in eosinophil counts in BALF at 20 umol/kg, ip administered 30 mins prior to allergen challenge and measured after 2 days post challenge; type: functional, organism-based; conditions: dose 20.0 µmol/kg, time 2.0 day
[4] = target: Voltage-gated inwardly rectifying potassium channel KCNH2 (Homo sapiens, UniProt Q12809)
liver carboxylesterase = target: T1, liver carboxylesterase (Sus scrofa, UniProt Q29550); experiment: Drug metabolism in pH 7.5 HEPES buffer assessed as porcine liver esterase-mediated compound hydrolysis by measuring half life measured up to 120 mins by HPLC analysis; type: ADME, tissue-based; conditions: pig
T1 sequence (Q29550 whole entry): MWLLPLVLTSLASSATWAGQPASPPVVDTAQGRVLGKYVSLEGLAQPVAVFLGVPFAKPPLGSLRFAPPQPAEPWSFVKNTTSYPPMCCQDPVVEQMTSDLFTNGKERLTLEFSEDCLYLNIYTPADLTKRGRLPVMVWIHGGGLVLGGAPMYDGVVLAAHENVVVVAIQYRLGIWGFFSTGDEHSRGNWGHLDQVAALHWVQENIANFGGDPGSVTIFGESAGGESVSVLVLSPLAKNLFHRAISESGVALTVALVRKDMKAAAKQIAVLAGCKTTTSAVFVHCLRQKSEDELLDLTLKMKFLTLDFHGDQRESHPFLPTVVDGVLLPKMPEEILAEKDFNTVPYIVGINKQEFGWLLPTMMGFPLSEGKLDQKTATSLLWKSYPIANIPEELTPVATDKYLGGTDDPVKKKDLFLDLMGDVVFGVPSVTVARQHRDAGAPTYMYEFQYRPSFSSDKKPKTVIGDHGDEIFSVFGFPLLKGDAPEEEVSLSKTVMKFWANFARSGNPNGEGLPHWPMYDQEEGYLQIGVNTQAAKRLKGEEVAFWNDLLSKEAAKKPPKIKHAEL

[5] = Stability of compound in aqueous medium after 24 hrs in absence of PLE by HPLC analysis; type: physicochemical; conditions: buffer
[6] = Microsomal stability in human liver microsomes assessed as half life; type: ADME, Microsome
[7] = Clearance in Wistar rat at 10 mg/kg, ip measured upto 24 hrs by HPLC-MS/MS method; type: ADME, organism-based; conditions: in vivo
[8] = Elimination rate constant in Wistar rat at 10 mg/kg, ip measured upto 24 hrs by HPLC-MS/MS method; type: ADME, organism-based; conditions: in vivo
[9] = Microsomal stability in rat liver microsomes assessed as half life; type: ADME, Microsome
[10] = Elimination rate constant in Wistar rat at 1 mg/kg, ip measured upto 24 hrs by HPLC-MS/MS method; type: ADME, organism-based; conditions: in vivo
[11] = Bioavailability in Wistar rat at 0.5 mg/kg, iv measured upto 24 hrs by HPLC-MS/MS method; type: ADME, organism-based; conditions: in vivo
[12] = Clearance in Wistar rat at 1 mg/kg, ip measured upto 24 hrs by HPLC-MS/MS method; type: ADME, organism-based; conditions: in vivo
[13] = Aqueous solubility of compound at pH 7.4; type: physicochemical; conditions: buffer
[14] = Bioavailability in Wistar rat at 1 mg/kg, ip measured upto 24 hrs by HPLC-MS/MS method; type: ADME, organism-based; conditions: in vivo
[15] = Bioavailability in Wistar rat at 10 mg/kg, ip measured upto 24 hrs by HPLC-MS/MS method; type: ADME, organism-based; conditions: in vivo
Mus musculus [16] = experiment: Reversal of CCI-induced mechano-allodynia in mouse model of neuropathic pain at 10 umol/kg, ip after 2 hrs; type: functional, organism-based; conditions: dose 10.0 µmol/kg
Translocator protein = Translocator protein (Homo sapiens, UniProt P30536); experiment: Binding affinity to TSPO (unknown origin)
[17] = Toxicity in mouse at 10 umol/kg, ip; conditions: in vivo, dose 10 µmol/kg
[18] = Microsomal stability in mouse liver microsomes assessed as half life; type: ADME, Microsome
[19] = Clearance in Wistar rat at 3 mg/kg, ip measured upto 24 hrs by HPLC-MS/MS method; type: ADME, organism-based; conditions: in vivo
[20] = Stability in mouse plasma assessed as half life; type: ADME, cell-free
[21] = Stability of compound in stimulated intestinal fluid assessed as half life; type: ADME; conditions: simulated gi fluid
[22] = Bioavailability in Wistar rat at 3 mg/kg, ip measured upto 24 hrs by HPLC-MS/MS method; type: ADME, organism-based; conditions: in vivo
Mus musculus [23] = experiment: Reversal of CCI-induced mechano-allodynia in mouse model of neuropathic pain at 10 umol/kg, ip measured after 3 to 5 hrs; type: functional, organism-based; conditions: dose 10.0 µmol/kg, time 3-5 hrs
[24] = AUC (0 to infinity) in Wistar rat at 1 mg/kg, ip measured upto 24 hrs by HPLC-MS/MS method; type: ADME, organism-based; parameters: route intraperitoneal, dose 1 mg/kg, time <=24; conditions: in vivo
[25] = target: Sigma intracellular receptor 2 (Homo sapiens, UniProt Q5BJF2); experiment: Binding affinity to sigma 2 receptor (unknown origin)
HepG2 = experiment: Cytotoxicity against human HepG2 cells; type: cell-based
[26] = Elimination rate constant in Wistar rat at 0.5 mg/kg, iv measured upto 24 hrs by HPLC-MS/MS method; type: ADME, organism-based; conditions: in vivo
[27] = Elimination rate constant in Wistar rat at 3 mg/kg, ip measured upto 24 hrs by HPLC-MS/MS method; type: ADME, organism-based; conditions: in vivo
[28] = Stability of compound in stimulated gastric fluid assessed as half life; type: ADME; conditions: simulated gi fluid
[29] = Stability in rat plasma assessed as half life; type: ADME, cell-free
P2Y purinoceptor 14 = target: T2, P2Y purinoceptor 14 (Homo sapiens, UniProt Q15391); experiment: cell-based
T2 sequence (Q15391 whole entry): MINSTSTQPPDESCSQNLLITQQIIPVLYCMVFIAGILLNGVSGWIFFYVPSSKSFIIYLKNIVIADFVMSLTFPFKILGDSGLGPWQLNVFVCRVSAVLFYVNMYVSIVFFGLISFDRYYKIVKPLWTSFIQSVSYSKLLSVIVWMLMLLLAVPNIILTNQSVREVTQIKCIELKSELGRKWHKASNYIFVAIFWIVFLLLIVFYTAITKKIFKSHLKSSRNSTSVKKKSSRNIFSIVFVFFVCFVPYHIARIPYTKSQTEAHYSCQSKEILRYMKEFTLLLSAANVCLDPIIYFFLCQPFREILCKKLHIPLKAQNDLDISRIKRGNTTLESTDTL

Sequence of Delta-type opioid receptor (P41143 whole entry): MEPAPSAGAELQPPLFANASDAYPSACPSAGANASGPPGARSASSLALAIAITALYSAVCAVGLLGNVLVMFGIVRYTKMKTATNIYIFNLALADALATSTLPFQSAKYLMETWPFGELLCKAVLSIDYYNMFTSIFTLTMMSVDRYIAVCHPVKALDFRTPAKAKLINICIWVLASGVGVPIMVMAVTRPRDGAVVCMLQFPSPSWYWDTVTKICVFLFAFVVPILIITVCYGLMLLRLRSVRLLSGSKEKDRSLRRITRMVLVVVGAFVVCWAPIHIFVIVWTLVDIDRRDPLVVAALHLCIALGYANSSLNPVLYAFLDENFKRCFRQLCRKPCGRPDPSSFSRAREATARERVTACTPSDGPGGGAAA
Sequence of Sigma non-opioid intracellular receptor 1 (Q99720 whole entry): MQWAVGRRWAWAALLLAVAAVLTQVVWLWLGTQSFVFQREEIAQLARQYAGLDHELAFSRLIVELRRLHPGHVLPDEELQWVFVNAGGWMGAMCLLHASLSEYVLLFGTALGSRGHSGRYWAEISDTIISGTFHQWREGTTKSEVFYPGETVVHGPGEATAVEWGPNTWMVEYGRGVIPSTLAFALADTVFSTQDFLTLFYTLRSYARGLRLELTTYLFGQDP
Sequence of Sigma intracellular receptor 2 (Q5BJF2 whole entry): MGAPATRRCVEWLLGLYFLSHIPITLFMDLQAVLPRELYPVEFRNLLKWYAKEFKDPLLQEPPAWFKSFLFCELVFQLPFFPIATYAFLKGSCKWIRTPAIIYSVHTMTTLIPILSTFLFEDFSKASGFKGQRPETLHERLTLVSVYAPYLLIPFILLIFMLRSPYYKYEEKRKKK
Sequence of Translocator protein (P30536 whole entry): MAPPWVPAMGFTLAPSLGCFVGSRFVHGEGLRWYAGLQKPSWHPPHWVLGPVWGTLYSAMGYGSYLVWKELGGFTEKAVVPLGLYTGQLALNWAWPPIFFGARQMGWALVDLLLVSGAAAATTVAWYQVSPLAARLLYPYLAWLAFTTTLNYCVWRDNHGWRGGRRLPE
Sequence of Voltage-gated inwardly rectifying potassium channel KCNH2 (Q12809 whole entry): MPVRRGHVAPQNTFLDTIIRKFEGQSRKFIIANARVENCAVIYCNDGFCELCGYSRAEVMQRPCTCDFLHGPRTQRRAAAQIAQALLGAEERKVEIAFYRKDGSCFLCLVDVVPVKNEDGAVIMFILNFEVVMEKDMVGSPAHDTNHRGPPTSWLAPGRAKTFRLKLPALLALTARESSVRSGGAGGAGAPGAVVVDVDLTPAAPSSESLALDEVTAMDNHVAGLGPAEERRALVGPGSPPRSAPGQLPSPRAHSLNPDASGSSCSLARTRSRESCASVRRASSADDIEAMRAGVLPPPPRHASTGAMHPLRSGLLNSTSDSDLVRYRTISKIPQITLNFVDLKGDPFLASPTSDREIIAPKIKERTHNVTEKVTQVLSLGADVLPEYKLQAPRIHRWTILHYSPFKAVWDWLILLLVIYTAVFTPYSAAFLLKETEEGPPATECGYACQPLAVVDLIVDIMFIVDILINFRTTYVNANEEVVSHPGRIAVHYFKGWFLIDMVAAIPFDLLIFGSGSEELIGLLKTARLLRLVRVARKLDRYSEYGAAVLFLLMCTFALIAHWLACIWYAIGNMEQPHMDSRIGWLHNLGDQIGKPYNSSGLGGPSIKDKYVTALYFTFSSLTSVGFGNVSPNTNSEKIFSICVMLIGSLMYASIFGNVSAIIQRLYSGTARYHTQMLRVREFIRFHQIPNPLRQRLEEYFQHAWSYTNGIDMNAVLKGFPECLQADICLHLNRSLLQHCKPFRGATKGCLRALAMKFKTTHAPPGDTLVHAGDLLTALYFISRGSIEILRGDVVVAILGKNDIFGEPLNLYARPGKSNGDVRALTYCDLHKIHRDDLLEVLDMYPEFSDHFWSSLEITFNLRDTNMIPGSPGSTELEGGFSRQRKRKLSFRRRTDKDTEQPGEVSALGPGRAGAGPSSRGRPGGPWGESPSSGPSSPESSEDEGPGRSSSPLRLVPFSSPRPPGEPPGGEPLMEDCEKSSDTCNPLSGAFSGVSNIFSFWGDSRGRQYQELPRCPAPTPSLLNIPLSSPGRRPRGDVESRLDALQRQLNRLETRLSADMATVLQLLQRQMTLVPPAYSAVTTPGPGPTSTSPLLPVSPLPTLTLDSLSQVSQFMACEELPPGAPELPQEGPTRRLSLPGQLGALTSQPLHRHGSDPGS

`O=C(O)c1cc(-c2ccc(NC(=O)C3CCNCC3)cc2)cc(-n2cc(-c3ccc(C(F)(F)F)cc3)nn2)c1` showed a Ki [1] of 2.33 µM and a Ki [2] of 2 µM.

With `O=C(O)c1cc(-c2ccc(C3CCNCC3)cc2)c2ccc(-c3ccc(C(F)(F)F)cc3)cc2c1` [PPTN] the Activity (Mus musculus [3]) was “Active” and the EC50 [4] was greater than 30 µM.

With `CN(C)C(=O)COC(=O)c1cc(-c2ccc(C3CCNCC3)cc2)cc(-n2cc(-c3ccc(C(F)(F)F)cc3)nn2)c1` the half-life (liver carboxylesterase) was 0.337 h and the Stabilty [5] was “Stable”.

With `O=C(O)c1cc(-c2ccc(-c3cc(CO)on3)cc2)c2ccc(-c3ccc(C(F)(F)F)cc3)cc2c1` the t1/2 [6] was greater than 4 h, the CL/F [7] was 33.8 mL/min/kg and the k el at 24 h [8] was 6.47e-05 s⁻¹. The t1/2 [9] was 0.795 h, the k el at 24 h [10] was 2.67e-05 s⁻¹ and the F [11] was 100%. For the same compound, the CL/F [12] was 23.8 mL/min/kg, the Ki [1] was 2.68 µM and the solubility [13] was 2.43 ug ml-1 and 4.96 uM. The F [14] was 139%, the F [15] was 105% and the Activity (Mus musculus [16]) was “inactive”. The Ki (Translocator protein) was 4.63 µM, the Activity [17] was “Non-Toxic” and the t1/2 [18] was greater than 4 h. For the same compound, the CL/F [19] was 23.7 mL/min/kg, the t1/2 [20] was greater than 4 h and the t1/2 [21] was greater than 4 h. For the same compound, the F [22] was 147%, the Activity (Mus musculus [23]) was “inactive” and the AUC [24] was 700 ng·h/mL. For the same compound, the Ki [25] was 4.78 µM, the IC50 (HepG2) was 8.47 µM and the k el at 24 h [26] was 0.000281 s⁻¹. It also gave a k el at 24 h [27] of 4.11e-05 s⁻¹, a t1/2 [28] of 2.68 h and a t1/2 [29] greater than 4 h.

Compound `CC(C)(C)OC(=O)NC1(c2ccc(-c3cc(C(=O)O)cc(-n4cc(-c5ccc(C(F)(F)F)cc5)nn4)c3)cc2)CCC1` has an IC50 (P2Y purinoceptor 14) greater than 10 µM.

Compound `O=C(O)c1cc(-c2ccc(-c3nnn[nH]3)cc2)cc(-n2cc(-c3ccc(C(F)(F)F)cc3)nn2)c1` has a Ki [2] of 3.3 µM and a Ki [25] of 2.26 µM.
